Measured values taken from ChEMBL document CHEMBL1201862, “PubChem BioAssay data set” (2004).
Calls of active or inactive are those of the source.

Columns and labels:
[1] = biological target: Diphosphomevalonate decarboxylase (Streptococcus pneumoniae serotype 2 (strain D39 / NCTC 7466), UniProt Q9FD53); experiment: diphosphomevalonate decarboxylase inhibitor confirmation – biochemical, cuvette format, coupled NADH fluorescence (AID 1028); assay type: functional
[2] = Luminescence Cell-Based Dose Confirmation HTS to Identify Activators of 5'UTR Stem-Loop Driven Alpha-Synuclein mRNA Translation in H4 Neuroglioblastoma Cells. [Related pubchem assays: 1829 (Project Summary), 1814 (Primary HTS)]; assay type: functional
[3] = MIN6 cell viability loss – mouse insulinoma, cytotoxicity control, dose response (AID 2122); assay type: functional;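 also: confirmatory high-throughput counterscreen run to flag cytotoxic compounds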
[4] = biological target: Protein-tyrosine kinase 2-beta (Homo sapiens, UniProt Q14289);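 also: potency of inhibitors of PYK2 kinase phosphorylation of poly-GT substrate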
Sequence of Protein-tyrosine kinase 2-beta (Q14289 whole entry): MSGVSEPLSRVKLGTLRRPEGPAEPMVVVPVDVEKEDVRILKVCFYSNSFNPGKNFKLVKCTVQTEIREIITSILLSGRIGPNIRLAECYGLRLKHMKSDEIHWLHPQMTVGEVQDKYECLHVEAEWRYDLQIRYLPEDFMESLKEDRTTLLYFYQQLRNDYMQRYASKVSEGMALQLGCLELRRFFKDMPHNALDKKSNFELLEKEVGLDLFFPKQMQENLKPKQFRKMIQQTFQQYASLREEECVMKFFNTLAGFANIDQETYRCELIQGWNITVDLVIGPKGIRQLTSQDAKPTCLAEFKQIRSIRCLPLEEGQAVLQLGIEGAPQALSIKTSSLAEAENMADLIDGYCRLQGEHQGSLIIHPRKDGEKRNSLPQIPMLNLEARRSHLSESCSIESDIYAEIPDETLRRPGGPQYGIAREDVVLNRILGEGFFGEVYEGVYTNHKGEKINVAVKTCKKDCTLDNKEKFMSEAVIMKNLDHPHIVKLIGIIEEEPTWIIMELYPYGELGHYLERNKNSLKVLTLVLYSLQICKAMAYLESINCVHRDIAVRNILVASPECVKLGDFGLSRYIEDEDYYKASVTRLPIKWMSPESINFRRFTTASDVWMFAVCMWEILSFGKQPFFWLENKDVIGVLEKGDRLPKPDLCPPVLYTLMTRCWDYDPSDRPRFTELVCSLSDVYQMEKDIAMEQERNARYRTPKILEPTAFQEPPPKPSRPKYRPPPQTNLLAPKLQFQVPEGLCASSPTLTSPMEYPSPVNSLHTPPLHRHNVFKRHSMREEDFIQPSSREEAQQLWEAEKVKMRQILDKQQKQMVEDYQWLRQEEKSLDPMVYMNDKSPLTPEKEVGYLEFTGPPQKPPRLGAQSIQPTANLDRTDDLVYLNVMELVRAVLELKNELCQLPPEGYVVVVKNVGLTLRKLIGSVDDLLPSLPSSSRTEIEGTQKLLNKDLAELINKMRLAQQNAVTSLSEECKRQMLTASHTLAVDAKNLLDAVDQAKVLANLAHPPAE

H4 = experiment: Luminescence Cell-Based Dose Response HTS to Identify Activators of 5'UTR Stem-Loop Driven Prion Protein mRNA Translation in H4 Neuroglioblastoma Cells. [Related pubchem assays: 1829 (Project Summary), 1814 (Primary HTS)]; assay type: functional; details: Homo sapiens
[5] = Luminescence Cell-Based Dose Response HTS to Identify Activators of Luciferase Translation or Activity in H4 […] Cells. [Related pubchem assays: 1829 (Project Summary), 1814 (Primary HTS)]; assay type: functional
[6] = decrease of insulin promoter-GFP reporter – imaging, high-content screening, mouse beta cells (AID 1628); assay type: functional; details: MIN6
Bcl-2-like protein 1 = Bcl-2-like protein 1 (Homo sapiens, UniProt Q07817); experiment: blockers of BCLXL peptide binding – biochemical, fluorescence polarization, 1536-well, selectivity assay for MCL1 inhibitor project, dose response (AID 2218)
Sequence of Bcl-2-like protein 1 (Q07817 whole entry): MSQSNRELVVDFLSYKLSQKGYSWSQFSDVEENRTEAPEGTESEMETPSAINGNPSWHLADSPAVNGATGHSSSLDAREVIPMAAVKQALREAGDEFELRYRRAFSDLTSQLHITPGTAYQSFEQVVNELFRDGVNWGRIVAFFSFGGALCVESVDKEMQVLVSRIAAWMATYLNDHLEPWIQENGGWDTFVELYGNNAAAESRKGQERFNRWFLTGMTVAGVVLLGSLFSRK

[7] = biological target: T1, Induced myeloid leukemia cell differentiation protein Mcl-1 (Homo sapiens, UniProt Q07820); assay type: functional
T1 sequence (Q07820 whole entry): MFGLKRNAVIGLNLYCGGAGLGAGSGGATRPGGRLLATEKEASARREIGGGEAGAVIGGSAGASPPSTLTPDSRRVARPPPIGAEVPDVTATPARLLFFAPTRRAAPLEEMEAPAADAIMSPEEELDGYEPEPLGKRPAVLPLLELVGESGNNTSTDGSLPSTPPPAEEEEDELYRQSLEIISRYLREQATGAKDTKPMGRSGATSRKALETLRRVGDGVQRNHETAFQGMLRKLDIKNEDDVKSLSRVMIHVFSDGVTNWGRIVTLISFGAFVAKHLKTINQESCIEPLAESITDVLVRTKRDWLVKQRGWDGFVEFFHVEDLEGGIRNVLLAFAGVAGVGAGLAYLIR

[8] = biological target: T1, Induced myeloid leukemia cell differentiation protein Mcl-1; experiment: blockers of MCL1 binding to BIM peptide – biochemical, fluorescence polarization, BIM-BH3 peptide, 1536-well, dose response (AID 2217)
[9] = biological target: RNA-editing ligase 1, mitochondrial (Trypanosoma brucei brucei, UniProt P86926); experiment: inhibition of trypanosome RNA editing ligase – biochemical, fluorescence, Trypanosoma brucei, dose response (AID 1117295); assay type: functional
Sequence of RNA-editing ligase 1, mitochondrial (P86926 whole entry): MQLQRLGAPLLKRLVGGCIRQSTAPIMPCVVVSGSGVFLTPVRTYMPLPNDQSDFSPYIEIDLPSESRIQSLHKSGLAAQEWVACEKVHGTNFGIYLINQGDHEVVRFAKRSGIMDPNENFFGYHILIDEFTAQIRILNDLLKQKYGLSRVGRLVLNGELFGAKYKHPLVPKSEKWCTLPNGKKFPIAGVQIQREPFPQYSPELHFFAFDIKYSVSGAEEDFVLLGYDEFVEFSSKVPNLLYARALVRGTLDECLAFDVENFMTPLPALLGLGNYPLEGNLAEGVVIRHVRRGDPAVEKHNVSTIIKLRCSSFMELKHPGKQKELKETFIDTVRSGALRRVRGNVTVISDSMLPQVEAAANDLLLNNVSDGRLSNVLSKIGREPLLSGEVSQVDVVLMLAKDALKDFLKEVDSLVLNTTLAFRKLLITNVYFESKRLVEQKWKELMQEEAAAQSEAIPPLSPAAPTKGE

Vero = experiment: inhibition of WNV-induced cytopathic effect – cell-based, CPE readout (AID 1621); assay type: functional; details: Chlorocebus sabaeus
Cytochrome P450 2C19 = Cytochrome P450 2C19 (Homo sapiens, UniProt P33261); experiment: qHTS Assay for Inhibitors and Substrates of Cytochrome P450 2C19. [Related pubchem assays: 410 ]; assay type: ADME; details: read-out: Potency
Sequence of Cytochrome P450 2C19 (P33261 whole entry): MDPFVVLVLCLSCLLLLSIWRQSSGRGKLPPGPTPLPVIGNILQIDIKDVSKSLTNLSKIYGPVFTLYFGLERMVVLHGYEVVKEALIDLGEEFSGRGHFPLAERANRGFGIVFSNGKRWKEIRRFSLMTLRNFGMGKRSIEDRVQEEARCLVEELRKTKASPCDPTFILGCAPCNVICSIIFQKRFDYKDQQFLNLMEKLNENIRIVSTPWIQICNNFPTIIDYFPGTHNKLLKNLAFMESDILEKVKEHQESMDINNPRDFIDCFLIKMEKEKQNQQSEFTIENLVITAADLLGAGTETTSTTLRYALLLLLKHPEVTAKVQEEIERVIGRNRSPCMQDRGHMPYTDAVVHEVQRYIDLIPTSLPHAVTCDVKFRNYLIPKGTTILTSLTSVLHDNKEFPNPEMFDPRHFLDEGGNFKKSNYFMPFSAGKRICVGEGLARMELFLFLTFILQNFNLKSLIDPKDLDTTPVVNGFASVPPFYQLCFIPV

Estrogen receptor beta = Estrogen receptor beta (Homo sapiens, UniProt Q92731);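 also: recombinant ER-beta bound to coactivator SRC1 peptide in presence of estradiol agonist; inhibitors block coactivator peptide binding and lower the FRET signal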
Sequence of Estrogen receptor beta (Q92731 whole entry): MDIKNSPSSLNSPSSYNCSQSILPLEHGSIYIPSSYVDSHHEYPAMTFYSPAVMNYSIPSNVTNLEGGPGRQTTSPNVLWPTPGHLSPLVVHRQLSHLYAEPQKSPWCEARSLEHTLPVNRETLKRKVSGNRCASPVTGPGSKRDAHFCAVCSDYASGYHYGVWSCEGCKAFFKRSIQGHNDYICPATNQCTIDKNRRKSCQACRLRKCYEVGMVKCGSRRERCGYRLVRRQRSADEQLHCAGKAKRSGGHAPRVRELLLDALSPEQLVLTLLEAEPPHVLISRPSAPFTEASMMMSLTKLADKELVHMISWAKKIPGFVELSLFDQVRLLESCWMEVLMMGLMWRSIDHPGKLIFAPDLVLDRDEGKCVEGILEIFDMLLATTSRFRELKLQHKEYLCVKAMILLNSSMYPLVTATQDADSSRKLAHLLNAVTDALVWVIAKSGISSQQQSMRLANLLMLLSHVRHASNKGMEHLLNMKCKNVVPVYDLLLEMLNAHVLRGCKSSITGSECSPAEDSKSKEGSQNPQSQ

NADPH oxidase 1 = NADPH oxidase 1 (Homo sapiens, UniProt Q9Y5S8); assay type: functional, cell-based;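 also: Cell-based assay with luminescence read-out, IC50 derived from inhibitor dose-response curves; intracellular ROS from endogenous NOX1 in intact HT29 colon cancer cells; potency of inhibitors that lower the ROS luminescence signal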
Sequence of NADPH oxidase 1 (Q9Y5S8 whole entry): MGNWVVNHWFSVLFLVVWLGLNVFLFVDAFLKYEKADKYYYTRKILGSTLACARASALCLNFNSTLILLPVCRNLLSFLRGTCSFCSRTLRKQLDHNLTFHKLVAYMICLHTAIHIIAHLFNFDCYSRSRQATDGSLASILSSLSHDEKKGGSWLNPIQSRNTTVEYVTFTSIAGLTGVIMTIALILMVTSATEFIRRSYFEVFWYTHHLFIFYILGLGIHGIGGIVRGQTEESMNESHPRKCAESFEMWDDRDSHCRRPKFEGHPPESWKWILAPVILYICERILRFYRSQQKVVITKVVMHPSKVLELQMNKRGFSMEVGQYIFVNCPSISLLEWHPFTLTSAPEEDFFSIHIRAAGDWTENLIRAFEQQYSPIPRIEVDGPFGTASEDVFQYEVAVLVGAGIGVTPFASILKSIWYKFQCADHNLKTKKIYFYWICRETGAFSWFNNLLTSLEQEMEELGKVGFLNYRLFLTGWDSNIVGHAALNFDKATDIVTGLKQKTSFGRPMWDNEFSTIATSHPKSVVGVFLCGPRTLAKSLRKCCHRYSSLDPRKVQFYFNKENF

[10] = biological target: Sphingosine 1-phosphate receptor 2 (Homo sapiens, UniProt O95136); experiment: Dose Response Cell Based Assay for Agonists of the S1P2 Receptor of Purchased Analogues. [Related pubchem assays: 729, 843, 854, 736 ]; assay type: functional
Sequence of Sphingosine 1-phosphate receptor 2 (O95136 whole entry): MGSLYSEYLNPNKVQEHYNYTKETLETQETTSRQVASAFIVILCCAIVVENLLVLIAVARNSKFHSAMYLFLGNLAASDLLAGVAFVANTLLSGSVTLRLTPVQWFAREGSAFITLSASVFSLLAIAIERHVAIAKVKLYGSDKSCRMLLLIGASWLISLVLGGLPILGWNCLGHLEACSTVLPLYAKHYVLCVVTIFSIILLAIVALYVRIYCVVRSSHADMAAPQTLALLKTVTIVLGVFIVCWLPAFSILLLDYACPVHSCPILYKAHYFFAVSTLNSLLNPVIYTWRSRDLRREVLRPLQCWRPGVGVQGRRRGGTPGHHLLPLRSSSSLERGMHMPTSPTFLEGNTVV

Sequence of Diphosphomevalonate decarboxylase (Q9FD53 whole entry): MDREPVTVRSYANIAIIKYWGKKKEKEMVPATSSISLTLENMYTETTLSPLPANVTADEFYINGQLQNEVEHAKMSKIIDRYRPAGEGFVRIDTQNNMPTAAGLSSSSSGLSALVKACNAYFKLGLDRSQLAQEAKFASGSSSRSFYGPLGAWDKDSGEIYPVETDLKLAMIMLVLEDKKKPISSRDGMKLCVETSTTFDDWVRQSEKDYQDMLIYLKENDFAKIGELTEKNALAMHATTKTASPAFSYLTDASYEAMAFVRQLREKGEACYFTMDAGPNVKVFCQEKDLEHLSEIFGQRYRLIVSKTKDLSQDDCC

## O=C(c1cccc(-n2sc3ccccc3c2=O)c1)N1CCCC1
[1]
  IC50: 16.5 µM (active)

## Cc1ccc2[nH]c3c(NCc4ccco4)ncnc3c2c1
[2]
  EC50: 29.1 µM (active)
[3]
  IC50: 2.95 µM (active)
[4]
  IC50: > 69.5 µM (not active)
H4
  EC50: 17.8 µM (active)
[5]
  EC50: 20.1 µM (active)
[6]
  IC50: 2.53 µM (active)

## Nc1nc(S)c2ncn(C3OC(CO)C(O)C3O)c2n1 (stereo unspecified)
Bcl-2-like protein 1
  IC50: 34 µM (not active)
[7]
  IC50: 7.34 µM (active)
[8]
  IC50: 4.94 µM (active)

## Cc1c(P(=S)(c2ccccc2)c2ccccc2)n2ccccc2[n+]1C/C=C/c1ccccc1
[9]
  IC50: > 96.6 µM (inactive)

## Cc1ccc(-c2cc(C(=O)NCCCN3CCCC3)c3ccccc3n2)cc1C
Vero
  IC50: 21.8 µM (active)

## CCCn1c(=O)[nH]c2nc(-c3ccc(S(=O)(=O)O)cc3)[nH]c2c1=O
Cytochrome P450 2C19
  AC50: 7.94 µM (inconclusive)

## CCCCCCN/C=C1\C(=O)CC(C)(C)C(C(=O)OC)C1=O (stereo unspecified)
Estrogen receptor beta
  IC50: > 50 µM (not active)

## O=C(O)c1sc2ccccc2c1Cl
NADPH oxidase 1
  IC50: > 17 µM (not active)

## Cc1cc(C(=O)CN2C(=O)NC(Cc3ccccc3)C2=O)c(C)n1Cc1cccs1 (stereo unspecified)
[10]
  EC50: > 30 µM (not active)
